Consider 16 molecules from patent publication US20230372498A1, “PLK1 SELECTIVE DEGRADATION INDUCING COMPOUND” (UPPTHERA, priority 2020, published 2023).

Molecules are shown by their SMILES. Like-named read-outs stand apart in the source and are kept apart here.

The target in the assay is T1, PLK1 (Homo sapiens, UniProt P53350).
T1 construct: endogenous in cells; host or cells: HeLa
In words: PLK1 protein degradation in HeLa cells, Western blotting (PLK1/GAPDH ratio). It is filed as cell-based. Conditions: 6 hours compound incubation; for Dmax: thymidine block and release, 10 points three-fold from 3 μM, PLK1 to GAPDH ratio; for DC50: measured only if the grade of Dmax is A or B. The method in brief:
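PLK1 level measured by Western blot as PLK1/GAPDH in HeLa lysates (15 μg protein per lane). Cells were blocked with 2 mM thymidine 24 h, released 4 h, and exposed 6 h to compound, 10 concentrations, 3-fold steps, top 3 μM.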

In general, Dmax refers to the greatest extent of degradation seen. For orientation: DC50 means the concentration giving 50% degradation.

T1 sequence (P53350 whole entry): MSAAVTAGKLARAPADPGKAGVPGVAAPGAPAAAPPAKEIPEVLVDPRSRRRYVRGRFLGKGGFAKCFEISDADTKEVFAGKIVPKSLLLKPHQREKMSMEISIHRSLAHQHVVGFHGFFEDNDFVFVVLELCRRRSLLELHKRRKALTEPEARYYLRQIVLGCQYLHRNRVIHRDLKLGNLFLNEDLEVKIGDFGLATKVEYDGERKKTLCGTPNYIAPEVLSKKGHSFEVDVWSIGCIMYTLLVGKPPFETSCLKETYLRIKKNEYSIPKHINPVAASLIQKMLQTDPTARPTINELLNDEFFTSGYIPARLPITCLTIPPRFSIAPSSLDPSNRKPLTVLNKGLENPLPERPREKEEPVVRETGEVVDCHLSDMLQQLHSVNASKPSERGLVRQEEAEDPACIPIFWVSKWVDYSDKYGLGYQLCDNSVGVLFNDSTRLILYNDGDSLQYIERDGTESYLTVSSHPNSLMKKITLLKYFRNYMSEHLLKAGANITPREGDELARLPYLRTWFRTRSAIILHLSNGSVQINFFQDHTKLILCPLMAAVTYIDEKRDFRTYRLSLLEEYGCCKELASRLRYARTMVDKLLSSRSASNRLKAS

On to `COc1cc(C(=O)NC2CCN(CCCCCCCCCCCCCCNc3cccc4c3C(=O)N(C3CCC(=O)NC3=O)C4=O)CC2)c(F)cc1Nc1ncc2c(n1)N(C1CCCC1)CC(F)(F)C(=O)N2C` (centres unmarked) [Compound 17, 4-((9-cyclopentyl-7,7-difluoro-5-methyl-6-oxo-5H,6H,7H,8H,9H-pyrimido[4,5-b][1,4]diazepin-2-yl)amino)-N-(1-(14-((2-(2,6-dioxopiperidin-3-yl)-1,3-dioxo-2,3-dihydro-1H-isoindol-4-yl)amino)tetradecyl)piperidin-4-yl)-2-fluoro-5-methoxybenzamide], for which the Dmax (read-out: Dmax) is below 60%.
As to `COc1cc(C(=O)NC2CCN(CCOCCOCC#Cc3cccc4c3C(=O)N(C3CCC(=O)NC3=O)C4=O)CC2)c(F)cc1Nc1ncc2c(n1)N(C1CCCC1)CC(F)(F)C(=O)N2C` (centres unmarked) [Compound 54, 4-((9-cyclopentyl-7,7-difluoro-5-methyl-6-oxo-6,7,8,9-tetrahydro-5H-pyrimido[4,5-b][1,4]diazepin-2-yl)amino)-N-(1-(2-(2-((3-(2-(2,6-dioxopiperidin-3-yl)-1,3-dioxoisoindolin-4-yl)prop-2-yn-1-yl)oxy)ethoxy)ethyl)piperidin-4-yl)-2-fluoro-5-methoxybenzamide], the 50% degradation concentration (DC50) is at most 500 nM. The maximal degradation (Dmax) (read-out: Dmax) fell in the range of 60 to 80%.
The corresponding values for `COc1cc(C(=O)NC2CCN(CCOCCOCCOCCOCCNc3cccc4c3C(=O)N(C3CCC(=O)NC3=O)C4=O)CC2)c(F)cc1Nc1ncc2c(n1)N(C1CCCC1)CC(F)(F)C(=O)N2C` (centres unmarked) [Compound 4, 4-((9-cyclopentyl-7,7-difluoro-5-methyl-6-oxo-6,7,8,9-tetrahydro-5H-pyrimido[4,5-b][1,4]diazepin-2-yl)amino)-N-(1-(14-((2-(2,6-dioxopiperidin-3-yl)-1,3-dioxoisoindolin-4-yl)amino)-3,6,9,12-tetraoxatetradecyl)piperidin-4-yl)-2-fluoro-5-methoxybenzamide] are at most 50 nM and at least 80%.
The corresponding values for `COc1cc(C(=O)N[C@@H]2CCN(C(=O)CCN3CCN(c4ccc5c(c4)C(=O)N(C4CCC(=O)NC4=O)C5=O)CC3)C2)c(F)cc1Nc1ncc2c(n1)N(C1CCCC1)CC(F)(F)C(=O)N2C` (stereo partly drawn) [Compound 137, 4-((9-cyclopentyl-7,7-difluoro-5-methyl-6-oxo-6,7,8,9-tetrahydro-5H-pyrimido[4,5-b][1,4]diazepin-2-yl)amino)-N-((3R)-1-(3-(4-(2-(2,6-dioxopiperidin-3-yl)-1,3-dioxoisoindolin-5-yl)piperazin-1-yl)propanoyl)pyrrolidin-3-yl)-2-fluoro-5-methoxybenzamide] are at most 50 nM and at least 80%.
For the molecule `COc1cc(C(=O)NC2CCN(CCOCCOCCOCCOCCOCCOCCOCCNC(=O)COc3cccc4c3C(=O)N(C3CCC(=O)NC3=O)C4=O)CC2)c(F)cc1Nc1ncc2c(n1)N(C1CCCC1)CC(F)(F)C(=O)N2C` (centres unmarked) [Compound 58, 4-((9-cyclopentyl-7,7-difluoro-5-methyl-6-oxo-6,7,8,9-tetrahydro-5H-pyrimido[4,5-b][1,4]diazepin-2-yl)amino)-N-(1-(1-((2-(2,6-dioxopiperidin-3-yl)-1,3-dioxoisoindolin-4-yl)oxy)-2-oxo-6,9,12,15,18,21,24-heptaoxa-3-azahexacosan-26-yl)piperidin-4-yl)-2-fluoro-5-methoxybenzamide], the greatest degradation seen (Dmax) (read-out: Dmax) was below 60%.
Consider `COc1cc(C(=O)NC2CCN(CCOCCOCCOCCOCC(=O)N[C@H](C(=O)N3C[C@H](O)C[C@H]3C(=O)NCc3ccc(-c4scnc4C)cc3)C(C)(C)C)CC2)c(F)cc1Nc1ncc2c(n1)N(C1CCCC1)CC(F)(F)C(=O)N2C` [Example 82], for which the maximal degradation (Dmax) result was “C (C: less than 60%)”.
Consider `COc1cc(C(=O)N[C@H]2CCN(C(=O)CCC(=O)N3CC4(C3)CN(c3cccc5c3C(=O)N(C3CCC(=O)NC3=O)C5=O)C4)C2)c(F)cc1Nc1ncc2c(n1)N(C1CCCC1)CC(F)(F)C(=O)N2C` (stereo partly drawn) [Compound 148, 4-((9-cyclopentyl-7,7-difluoro-5-methyl-6-oxo-6,7,8,9-tetrahydro-5H-pyrimido[4,5-b][1,4]diazepin-2-yl)amino)-N-((3S)-1-(4-(6-(2-(2,6-dioxopiperidin-3-yl)-1,3-dioxoisoindolin-4-yl)-2,6-diazaspiro[3.3]heptan-2-yl)-4-oxobutanoyl)pyrrolidin-3-yl)-2-fluoro-5-methoxybenzamide], for which the 50% degradation concentration (DC50) was at most 50 nM. Moreover, under “read-out: Dmax”, the Dmax was at least 80%.
Take `COc1cc(C(=O)NC2CCN(CCOCCOCCOCCOCCNc3cccc4c3C(=O)N(C3CCC(=O)NC3=O)C4=O)C2)c(F)cc1Nc1ncc2c(n1)N(C1CCCC1)CC(F)(F)C(=O)N2C` (centres unmarked) [Example 108, 4-((9-cyclopentyl-7,7-difluoro-5-methyl-6-oxo-6,7,8,9-tetrahydro-5H-pyrimido[4,5-b][1,4]diazepin-2-yl)amino)-N-(1-(14-((2-(2,6-dioxopiperidin-3-yl)-1,3-dioxoisoindolin-4-yl)amino)-3,6,9,12-tetraoxatetradecyl)pyrrolidin-3-yl)-2-fluoro-5-methoxybenzamide]: the 50% degradation concentration (DC50) was at most 50 nM. Besides, the maximal degradation (Dmax) (read-out: Dmax) is at least 80%.
The corresponding values for `COc1cc(C(=O)NCCCOCCCOCCNc2cccc3c2C(=O)N(C2CCC(=O)NC2=O)C3=O)c(F)cc1Nc1ncc2c(n1)N(C1CCCC1)CC(F)(F)C(=O)N2C` (centres unmarked) [Compound 157, 4-((9-cyclopentyl-7,7-difluoro-5-methyl-6-oxo-6,7,8,9-tetrahydro-5H-pyrimido[4,5-b][1,4]diazepin-2-yl)amino)-N-(3-(3-(2-((2-(2,6-dioxopiperidin-3-yl)-1,3-dioxoisoindolin-4-yl)amino)ethoxy)propoxy)propyl)-2-fluoro-5-methoxybenzamide] are at most 50 nM and at least 80%.
For `COc1cc(C(=O)NC2CCN(CCOCCOCCOCCOCCOCCOCCOCCNc3cccc4c3C(=O)N(C3CCC(=O)NC3=O)C4=O)CC2)c(F)cc1Nc1ncc2c(n1)N(C1CCCC1)CC(F)(F)C(=O)N2C` (centres unmarked) [Example 172, 4-((9-cyclopentyl-7,7-difluoro-5-methyl-6-oxo-6,7,8,9-tetrahydro-5H-pyrimido[4,5-b][1,4]diazepin-2-yl)amino)-N-(1-(23-((2-(2,6-dioxopiperidin-3-yl)-1,3-dioxoisoindolin-4-yl)amino)-3,6,9,12,15,18,21-heptaoxatricosyl)piperidin-4-yl)-2-fluoro-5-methoxybenzamide], where the note is “read-out: Dmax”, the Dmax is at least 80%.
Take `COc1cc(C(=O)NC2CCN(CCOCCOCC(=O)N[C@H](C(=O)N3C[C@H](O)C[C@H]3C(=O)NCc3ccc(-c4scnc4C)cc3)C(C)(C)C)CC2)c(F)cc1Nc1ncc2c(n1)N(C1CCCC1)CC(F)(F)C(=O)N2C` [Compound 80]: where the note is “read-out: Dmax”, the Dmax is below 60%.
Regarding `COc1cc(C(=O)N[C@H]2CCN(C(=O)CCCC(=O)N3CC4(C3)CN(c3cccc5c3C(=O)N(C3CCC(=O)NC3=O)C5=O)C4)C2)c(F)cc1Nc1ncc2c(n1)N(C1CCCC1)CC(F)(F)C(=O)N2C` (stereo partly drawn) [Compound 149, 4-((9-cyclopentyl-7,7-difluoro-5-methyl-6-oxo-6,7,8,9-tetrahydro-5H-pyrimido[4,5-b][1,4]diazepin-2-yl)amino)-N-((3S)-1-(5-(6-(2-(2,6-dioxopiperidin-3-yl)-1,3-dioxoisoindolin-4-yl)-2,6-diazaspiro[3.3]heptan-2-yl)-5-oxopentanoyl)pyrrolidin-3-yl)-2-fluoro-5-methoxybenzamide], the DC50 is at most 500 nM. The Dmax (read-out: Dmax) was in the range of 60 to 80%.
Turning to `COc1cc(C(=O)NC2CCN(CCc3ccc(CC(=O)Nc4cccc5c4C(=O)N(C4CCC(=O)NC4=O)C5=O)cc3)CC2)c(F)cc1Nc1ncc2c(n1)N(C1CCCC1)CC(F)(F)C(=O)N2C` (centres unmarked) [Compound 42, 4-((9-cyclopentyl-7,7-difluoro-5-methyl-6-oxo-6,7,8,9-tetrahydro-5H-pyrimido[4,5-b][1,4]diazepin-2-yl)amino)-N-(1-(4-(2-((2-(2,6-dioxopiperidin-3-yl)-1,3-dioxoisoindolin-4-yl)amino)-2-oxoethyl)phenethyl)piperidin-4-yl)-2-fluoro-5-methoxybenzamide], the half-maximal degradation concentration (DC50) was above 500 nM. In addition, for the setting “read-out: Dmax”, the maximal degradation (Dmax) was in the range of 60 to 80%.
The corresponding values for `CCOc1cc(C(=O)NC2CCN(CCOCCOCCNc3cccc4c3C(=O)N(C3CCC(=O)NC3=O)C4=O)CC2)c(F)cc1Nc1ncc2c(n1)N(C1CCCC1)CC(F)(F)C(=O)N2C` (centres unmarked) [Example 90, 4-((9-cyclopentyl-7,7-difluoro-5-methyl-6-oxo-6,7,8,9-tetrahydro-5H-pyrimido[4,5-b][1,4]diazepin-2-yl)amino)-N-(1-(2-(2-(2-((2-(2,6-dioxopiperidin-3-yl)-1,3-dioxoisoindolin-4-yl)amino)ethoxy)ethoxy)ethyl)piperidin-4-yl)-5-ethoxy-2-fluorobenzamide] are at most 500 nM and 60 to 80%.
On to `COc1cc(C(=O)N[C@H]2CCN(C(=O)CCCCN3CCN(c4cccc5c4C(=O)N(C4CCC(=O)NC4=O)C5=O)CC3)C2)c(F)cc1Nc1ncc2c(n1)N(C1CCCC1)CC(F)(F)C(=O)N2C` (stereo partly drawn) [Example 173, 4-((9-cyclopentyl-7,7-difluoro-5-methyl-6-oxo-6,7,8,9-tetrahydro-5H-pyrimido[4,5-b][1,4]diazepin-2-yl)amino)-N-((3S)-1-(5-(4-(2-(2,6-dioxopiperidin-3-yl)-1,3-dioxoisoindolin-4-yl)piperazin-1-yl)pentanoyl)pyrrolidin-3-yl)-2-fluoro-5-methoxybenzamide], for which the greatest degradation seen (Dmax) (read-out: Dmax) is at least 80%.
Take `COc1cc(C(=O)N[C@@H]2CCN(C(=O)CCCN3CCN(c4cccc5c4C(=O)N(C4CCC(=O)NC4=O)C5=O)CC3)C2)c(F)cc1Nc1ncc2c(n1)N(C1CCCC1)CC(F)(F)C(=O)N2C` (stereo partly drawn) [Compound 133, 4-((9-cyclopentyl-7,7-difluoro-5-methyl-6-oxo-6,7,8,9-tetrahydro-5H-pyrimido[4,5-b][1,4]diazepin-2-yl)amino)-N-((3R)-1-(4-(4-(2-(2,6-dioxopiperidin-3-yl)-1,3-dioxoisoindolin-4-yl)piperazin-1-yl)butanoyl)pyrrolidin-3-yl)-2-fluoro-5-methoxybenzamide]: the DC50 was at most 50 nM. Moreover, where the note is “read-out: Dmax”, the Dmax was at least 80%.
